# Data from patent US8916575B2, “Quinazoline derivatives for the treatment of viral infections and further diseases” (Janssen R&D Ireland, priority 2011, dated 2014).
# What was measured:
# [1] = tested on: human TLR7 mutant (dIRR2); assay: TLR7 mutant (deletion in second leucine-rich repeat) NFκB-luc cellular reporter assay; format: cell-based; parameters: unit not given here; details: HEK293 NFκB-luc reporter, mutant TLR7, 6 hours incubation
# Protocol: (§1) The ability of compounds to activate human TLR7 and/or TLR8 was assessed in a cellular reporter assay using HEK293 cells transiently transfected with a TLR7 or TLR8 expression vector and NFκB-luc reporter construct. In one instance the TLR expression construct expresses the respective wild type sequence or a mutant sequence comprising a deletion in the second leucine-rich repeat of the TLR.
# (§2) Briefly, HEK293 cells were grown in culture medium (DMEM supplemented with 10% FCS and 2 mM Glutamine). For transfection of cells in 10 cm dishes, cells were detached with Trypsin-EDTA, transfected with a mix of CMV-TLR7 or TLR8 plasmid (750 ng), NFκB-luc plasmid (375 ng) and a transfection reagent and incubated 24 hours at 37° C. in a humidified 5% CO2 atmosphere. Transfected cells were then detached with Trypsin-EDTA, washed in PBS and resuspended in medium to a density of 1.67×10^5 cells/mL. Thirty microliters of cells were then dispensed into each well in 384-well plates, where 10 μL of compound in 4% DMSO was already present. Following 6 hours incubation at 37° C., 5% CO2, the luciferase activity was determined by adding 15 μl of Steady Lite Plus substrate (Perkin Elmer) to each well and readout performed on a ViewLux ultraHTS microplate imager (Perkin Elmer). Dose response curves were generated from measurements performed in quadruplicates. Lowest effective concentrations (LEC) values, defined as the concentration that induces an effect which is at least two fold above the standard deviation of the assay, were determined for each compound.
# [2] = tested on: human TLR8 mutant (dIRR2); assay: TLR8 mutant (deletion in second leucine-rich repeat) NFκB-luc cellular reporter assay; format: cell-based; parameters: unit not given here; details: HEK293 NFκB-luc reporter, mutant TLR8, 6 hours incubation
# Protocol: as §1, §2
# human TLR8 = target: T1, human TLR8 (Homo sapiens, UniProt Q9NR97); assay: TLR8 wild type NFκB-luc cellular reporter assay; format: cell-based; parameters: unit not given here; details: HEK293 NFκB-luc reporter, 6 hours incubation
# T1 construct: expressed in transfected cells; host or cells: HEK293
# T1 sequence (Q9NR97 27-1041): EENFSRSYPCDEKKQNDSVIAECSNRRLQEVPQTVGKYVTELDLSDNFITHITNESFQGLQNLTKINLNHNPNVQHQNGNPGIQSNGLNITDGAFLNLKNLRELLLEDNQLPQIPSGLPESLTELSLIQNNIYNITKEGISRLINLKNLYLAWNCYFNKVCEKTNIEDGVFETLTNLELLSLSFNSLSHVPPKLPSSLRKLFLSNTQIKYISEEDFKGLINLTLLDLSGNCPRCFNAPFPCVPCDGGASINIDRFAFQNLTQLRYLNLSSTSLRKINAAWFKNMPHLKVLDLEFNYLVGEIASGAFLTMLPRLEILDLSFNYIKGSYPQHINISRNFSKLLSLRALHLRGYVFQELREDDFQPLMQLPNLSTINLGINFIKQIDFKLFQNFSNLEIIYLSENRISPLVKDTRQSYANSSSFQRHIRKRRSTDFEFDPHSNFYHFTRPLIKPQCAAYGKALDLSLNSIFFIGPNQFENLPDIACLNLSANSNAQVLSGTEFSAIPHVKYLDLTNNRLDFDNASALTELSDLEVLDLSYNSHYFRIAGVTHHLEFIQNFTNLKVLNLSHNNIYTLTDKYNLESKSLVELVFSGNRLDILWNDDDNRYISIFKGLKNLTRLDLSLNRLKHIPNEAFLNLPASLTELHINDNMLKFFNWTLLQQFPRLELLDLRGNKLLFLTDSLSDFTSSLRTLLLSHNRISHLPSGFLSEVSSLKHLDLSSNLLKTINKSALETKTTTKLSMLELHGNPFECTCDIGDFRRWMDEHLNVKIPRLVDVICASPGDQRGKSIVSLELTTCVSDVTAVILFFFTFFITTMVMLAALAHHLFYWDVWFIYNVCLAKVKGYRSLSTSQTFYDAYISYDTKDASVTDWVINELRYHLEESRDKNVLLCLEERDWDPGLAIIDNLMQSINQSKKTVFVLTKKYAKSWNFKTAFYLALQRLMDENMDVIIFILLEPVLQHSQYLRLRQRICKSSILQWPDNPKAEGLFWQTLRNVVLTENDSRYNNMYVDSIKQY
# Protocol: as §1, §2
# [3] = tested on: HCV replicon (Huh-7 luc/neo cells); assay: Suppression of HCV replicon replication by conditioned media from PBMC; format: cell-based, HCV type 1b; details: Hepatitis C virus, compound concentration applied to PBMCs giving 50% reduction of replicon luciferase activity, read-out: PBMC-HUH7_EC50
# Protocol: Activation of human TLR7 results in robust production of interferon by plasmacytoid dendritic cells present in human blood. The potential of compounds to induce interferon was evaluated by looking at the antiviral activity in the HCV replicon system upon incubation with conditioned media from peripheral blood mononuclear cells (PBMC). The HCV replicon assay is based on a bicistronic expression construct, as described by Lohmann et al. (Science (1999) 285: 110-113; Journal of Virology (2003) 77: 3007-15 3019) with modifications described by Krieger et al. (Journal of Virology (2001) 75: 4614-4624). The assay utilized the stably transfected cell line Huh-7 luc/neo harboring an RNA encoding a bicistronic expression construct comprising the wild type NS3-NS5B regions of HCV type 1b translated from an Internal Ribosome Entry Site (IRES) from encephalomyocarditis virus (EMCV), preceded by a reporter gene (Firefly-luciferase) and a selectable marker gene (neoR, neomycine phosphotransferase). The construct is flanked by 5′ and 3′ NTRs (non-translated regions) from HCV type 1b. Continued culture of the replicon cells in the presence of G418 (neoR) is dependent on the replication of the HCV RNA. The stably transfected replicon cells that replicate HCV RNA autonomously and to high levels, encoding inter alia luciferase, were used for profiling of the conditioned cell culture media.
# Briefly, PBMCs were prepared from buffy coats of at least two donors using a standard Ficoll centrifugation protocol. Isolated PBMCs were resuspended in RPMI medium supplemented with 10% human AB serum and 2×10^5 cells/well were dispensed into 384-well plates containing compounds (70 μL total volume). After overnight incubation, 10 μL of supernatant was transferred to 384-well plates containing 2.2×10^3 replicon cells/well in 30 μL (plated the day before). Following 24 hours of incubation, replication was measured by assaying luciferase activity using 40 μL/well Steady Lite Plus substrate (Perkin Elmer) and measured with ViewLux ultraHTS microplate imager (Perkin Elmer). The inhibitory activity of each compound on the Huh7-luc/neo cells were reported as EC50 values, defined as the compound concentration applied to the PBMCs resulting in a 50% reduction of luciferase activity which in turn indicates the degree of replication of the replicon RNA on transfer of a defined amount of PBMC culture medium. Recombinant interferon α-2a (Roferon-A) was used as a standard control compound.
smiles,measurement,setting,value
CCC[C@@H](CO)Nc1nc(N)nc2cc(OC)c(OC)cc12 [Compound 6],TLR7-dIRR2_LEC,[1],3.4
same,TLR8-dIRR2_LEC,[2],2.3
same,TLR8-wt_LEC,human TLR8,4.4
same,EC50,[3],3 µM
